The values that follow come from patent US10759831B2, “Peptide compound, production method therefor, and use thereof” (iNtRON Biotechnology, Inc., priority 2014, dated 2020).

The test system of test [1] is lung cancer cell line A549. The test is described as follows: SRB cell viability assay, lung cancer cell line A549. In kind it is cell-based. The following applies: Homo sapiens; A549, 72 hours; read-out: Cell growth inhibition concentration (IC50). The protocol: Regarding a lung cancer cell line A549 (Korean Cell line Bank), a colon cancer cell line HCT116 (ATCC), a stomach cancer cell line SNU638 (Korean Cell Line Bank), a liver cancer cell line SK-HEP-1 (Korean Cell line Bank), and a breast cancer cell line MDA-MB-231 (Korean Cell line Bank), a sulforhodamine B (SRB) assay which is a method of measuring cell viability was used for measuring apoptosis effects of Asperphenin.
(§1) In detail, 190 μl of a cell suspension at a concentration of 3.5×10^4 cells/ml was inoculated in each well of a 96-well microplate. 0.8 μM, 4 μM, 20 μM, or 100 μM of Asperphenin was added to the cell culture medium, and cultured at a temperature of 37° C. for 72 hours under the condition of 5% CO2. After incubation, 50 μl of 50% (v/v) trichloroacetic acid solution (Sigma Aldrich) was added to each well, and then, incubated at a temperature of 4° C. for 30 minutes, to thereby fix the cells thereto. The fixed cells were washed with water five times, and then, dried in the air.
Next, 80 μl of a 0.4% (w/v) SRB aqueous solution (Sigma Aldrich) containing 1% (v/v) acetic acid (DUKSAN) was added to each well, incubated at room temperature for 1 hour to stain cells therein, and the stained cells washed with water and dried. The cells were dissolved by adding 200 μl of 10 mM Tris (pH 10.0) (Sigma Aldrich) to each well, and then, the number of living cells was calculated by measuring the absorbance thereof at 515 nm. The concentration of the compound inhibiting cell growth to 50% based on the number of the living cells, i.e., 50% inhibition concentration (IC50) was calculated, and the results are shown in Table 3. Here, as a positive control, etoposide (Sigma Aldrich) was used.

For test [2], the system named is colon cancer cell line HCT15. The test can be described thus: SRB cell viability assay, colon cancer cell line HCT15. In kind it is cell-based. The following applies: Homo sapiens, HCT-15, read-out: Growth inhibition value of cancer cell (IC50). The method, then:
as §1
(§2) Next, 80 μl of a 0.4% (w/v) SRB aqueous solution (Sigma Aldrich) containing 1% (v/v) acetic acid (DUKSAN) was added to each well, incubated at room temperature for 1 hour to stain cells therein, and the stained cells washed with water and dried. The cells were dissolved by adding 200 μl of 10 mM Tris (pH 10.0) (Sigma Aldrich) to each well, and then, the number of living cells was calculated by measuring the absorbance thereof at 515 nm. […]
(§3) From the colon cancer cell lines HCT116 (ATCC), HCT15 (Korean Cell Line Bank), LS174T (Korean Cell Line Bank), RKO(ATCC), and SW480(ATCC), cell growth inhibition concentrations (IC50, μM) were calculated as described in Example 2-1, and the results are shown in Table 4. […]

In test [3] the test system is colon cancer cell line LS174T. The test can be described thus: SRB cell viability assay, colon cancer cell line LS174T. It counts as cell-based. The following applies: Homo sapiens, read-out: Growth inhibition value of cancer cell (IC50). The method, then: as §1, §2, §3
The subject of test [4] is colon cancer cell line SW480. The test is described as follows: SRB cell viability assay, colon cancer cell line SW480. It counts as cell-based. The following applies: Homo sapiens, read-out: Growth inhibition value of cancer cell (IC50). The method, then: as §1, §2, §3
Test [5] relates to RKO cells. The test can be described thus: Annexin V-FITC/PI apoptosis measurement by flow cytometry. In kind it is cell-based, human. The following applies: 48 hours, 0.625-10 μM, FIG. 4. The protocol: The process of apoptosis in the cell line RKO by Asperphenin B was confirmed using a Annexin V-FITC apoptosis measuring kit (manufactured by D Pharmingen).
As described in Example 2-3, Asperphenin B at the concentration of 0.625 μM, 1.25 μM, 2.5 μM, 5 μM, or 10 μM was added to the RKO cells, cultured for 48 hours to obtain cells. 300 μl of 1× binding buffer was added to the obtained cells, and well mixed together. Then, 5 μl of Annexin V and 5 μl of PI were added to 100 μl of the cell mixture, and allowed to react at room temperature for 15 minutes in the shaded stated. 400 μl of 1× binding buffer was added to the reactants, a FACSCalibur flow cytometer (BD FACSCalibur, BD Biosciences) was used to analyze the cell apoptosis. Based on the flow cytometry results, ratios of cells that were not stained (i.e., living cells), cells stained with annexin V (i.e., cells apoptosized at the early state), cells stained with both PI and annexin V (i.e., cells apoptosized at the late state or cells necrotized), or cells stained with PI only (i.e., cells necrotized) were calculated. As a negative control, cells to which Asperphenin B was not added were used.
On the technique in general: In flow cytometry, cells or beads pass a laser one at a time.

In test [6] the test system is apoptosis-related proteins in RKO cells. The test is described as follows: Immunoblotting of apoptosis-related proteins. It counts as cell-based, human. The method, then:
As described in Example 2-3, cells were obtained in a way that Asperphenin B at the concentration of 0.625 μM, 1.25 μM, 2.5 μM, 5 μM, or 10 μM was added to the RKO cells, and then, cultured for 48 hours. However, cells were obtained in a way that Asperphenin B at the concentration of 5 μM was added to the RKO cells, and then, cultured for 0 to 48 hours. Then, proteins were obtained from the obtained cells.
Also, regarding the expression of apoptosis-related proteins, anti-ATM antibody (Cell Signaling Technology), anti-p-Chk (Thr68) antibody (Cell Signaling Technology), anti-Chk antibody (Cell Signaling Technology), anti-p-H2AX antibody (Cell Signaling Technology), anti-p53 antibody (Santa Cruz), anti-Bax antibody (Santa Cruz), anti-BID antibody (Cell Signaling Technology), anti-Caspase-8 antibody (Cell Signaling Technology), anti-Caspase-3 antibody (Cell Signaling Technology), anti-Caspase-9 antibody (Cell Signaling Technology), anti-cleaved PARP antibody (BD Biosciences), and anti-β-actin antibody (Santa Cruz) were used, to thereby perform immunoblotting.

Test [7] concerns RKO cells. The test is described as follows: Tumor xenograft mouse model, RKO human colon cancer cell line. In kind it is in vivo. The following applies: nude mouse; for Tumor growth inhibition ratio: 21 days. The method, then: The anticancer effect of […] was verified in a tumor xenograft mouse model to which human colon cancer cell line was transplanted. In detail, RKO cells were subcutaneously injected at a concentration of 3.5×10^6 cells/150 μl into the right side of a nude mouse (Central Lab. Aminol Inc., hairless and small mouse that was tymus free and had dried beard at birth). […] The tumor size was measured by using a digital caliper for 21 days at intervals of 3 to 4 days. Here, as a control, a nude mouse to which […] was not administered was used (n=5).
On the technique in general: A xenograft is tissue or cells of one species grown in another, often human tumour cells in immunodeficient mice.

Take `CCCCCCCCC[C@@H](O)CC(=O)N[C@@H](CC(N)=O)C(=O)N[C@@H](CCC(N)=O)C(=O)N[C@H](CC(=O)c1cc(C)cc(O)c1C(=O)c1c(O)cccc1O)CC(C)C` [Asperphenin B]: the IC50 worked out at 41.8 µM in test [1], 7.2 µM in test [2], 1.84 µM in test [3] and 31.4 µM in test [4]. Moreover, in the test with RKO cells [5], the “Ratio of necrotic cells compared to control” value is “increased”. Moreover, the “Ratios of cells of early apoptosis and cells of late apoptosis or necrosis compared to control” value in the test with RKO cells [5] was “increased”. In test [6] (5 μM, 0 to 48 hours, FIG. 6B), the “Expression of p53 and Bax” value was “increased in a time-dependent manner”. For the same compound, in test [6] (5 μM, 48 hours, FIG. 6B), the “Expression of p-Chk2 (Thr68), p-H2AX (Ser139), cleaved caspase-8, cleaved caspase-9, cleaved caspase-3, and PARP” value is listed as “increased”. In addition, the “Expression of ATM protein” value in test [6] (48 hours, 0.625-10 μM, FIG. 6A) is “increased in a concentration-dependent manner”. Also, the “Expression of p53 protein” value in test [6] (48 hours, 0.625-10 μM, FIG. 6A) is “increased in a concentration-dependent manner”. Further, in test [6] (48 hours, FIG. 6A), the “Chk2 and H2AX, sub-regulatory factors of ATM” value was “phosphorylated to be activated”. For the same compound, the “Cleavage of Bid, caspase-8, caspase-9, caspase-3 and PARP” value in test [6] (48 hours, FIG. 6A) was “induced”. In addition, in test [6] (48 hours, FIG. 6A), the “Expression of Bax” value is “increased expression”. In addition, the figures for the “Tumor growth inhibition ratio” value with RKO cells [7] (4 mg/kg intraperitoneally 3 times a week) and with RKO cells [7] (8 mg/kg intraperitoneally 3 times a week) were 38.9% and 68.7%, respectively. In the test with RKO cells [7] (4 mg/kg or 8 mg/kg), the “Inhibition of tumor growth” value is reported as “observed in a compound concentration-dependent manner”.
